Broadly, the pIC50 is the IC50 on a negative log10 scale, so that one unit is a factor of ten. A higher pIC50 goes with a low IC50. Usually inhibition stands for the relative decrease from the control value, in per cent.

pIC50: −log10 of the molar value. Counter-ions that a name gives are not always drawn.

Experiment [1] deals with KYSE-520 cells. In words: Cell proliferation assay (MTS/PMS). Conditions: Homo sapiens, 192 h, 1500 cells/well, RPMI-1640 3% FBS, read at day 8. The experiment is classed as cell-based. Here is the method: For drug treatment, compounds of the invention at various concentrations were added 24 hours after cell plating. At day 8, 50 μL MTS/PMS reagents (Promega/Sigma) were added, and the absorbance value was determined according to the supplier's instruction (Promega).

Experiment [2] concerns the target T1, SHP2 (Homo sapiens (Human), UniProt Q06124). Description: Phosphatase assay (single dose inhibition), DiFMUP substrate. It counts as biochemical. To be noted: compound at 0.1 μM (100 nM); SHP2 0.5 nM activated with dPEG8 peptide; DiFMUP 12 μM; relative to DMSO control. Here is the method:
DMSO [0.5% (v/v)] or compounds (100 nM) were added to the mixture and incubated for 30 min at room temperature. […] The experiment is carried out in triplicate. The value for the control sample (DMSO) was set to 100%, and the values for the compound-treated samples were expressed as activity relative to the control sample.

Experiment [3] deals with T1, SHP2. Description: Phosphatase assay (IC50), DiFMUP substrate. Conditions: SHP2 0.5 nM activated with dPEG8 peptide; DiFMUP 12 μM; compounds 0.3 nM to 1 μM. It counts as biochemical. Here is the method:
DMSO [0.5% (v/v)] or compounds (concentrations ranging from 0.3 nM to 1 μM) were added to the mixture and incubated for 30 min at room temperature.

T1 sequence (Q06124 whole entry): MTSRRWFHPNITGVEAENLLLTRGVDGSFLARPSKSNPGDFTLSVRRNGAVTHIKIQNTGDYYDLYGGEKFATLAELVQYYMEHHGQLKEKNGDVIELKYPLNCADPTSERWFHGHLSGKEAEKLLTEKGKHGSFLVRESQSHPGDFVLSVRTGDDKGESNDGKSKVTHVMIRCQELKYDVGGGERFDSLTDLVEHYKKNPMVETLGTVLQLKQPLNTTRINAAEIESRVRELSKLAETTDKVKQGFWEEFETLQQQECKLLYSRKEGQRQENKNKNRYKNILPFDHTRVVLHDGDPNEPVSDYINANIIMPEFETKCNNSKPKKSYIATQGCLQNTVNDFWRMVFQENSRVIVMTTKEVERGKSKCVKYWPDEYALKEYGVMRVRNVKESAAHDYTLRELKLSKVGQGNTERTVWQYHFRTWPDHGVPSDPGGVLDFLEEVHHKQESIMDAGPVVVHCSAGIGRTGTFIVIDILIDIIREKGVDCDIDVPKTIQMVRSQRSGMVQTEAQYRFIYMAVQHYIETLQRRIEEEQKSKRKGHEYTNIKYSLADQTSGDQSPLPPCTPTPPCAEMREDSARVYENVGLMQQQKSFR

Molecule `CN(C)C(=O)C(=O)Nc1cccc(Sc2ncc(N3CCC4(CC3)COC[C@H]4N)nc2N)c1Cl` [Example 1, (S)-N1-(3-((3-amino-5-(4-amino-2-oxa-8-azaspiro[4.5]decan-8-yl)pyrazin-2-yl)thio)-2-chlorophenyl)-N2,N2-dimethyloxalamide hydrochloride] showed a pIC50 in experiment [1] of 4.80.
Take `CC(=O)N1CCc2c(Sc3ncc(N4CCC5(CC4)COC[C@H]5N)nc3N)cccc21` [Example 72, (S)-1-(4-((3-amino-5-(4-amino-2-oxa-8-azaspiro[4.5]decan-8-yl)pyrazin-2-yl)thio)indolin-1-yl)ethanone]: in experiment [2], the inhibition at 0.1 µM was 31%.
On to `CC(=O)N1CC(F)(F)c2c(Sc3ncc(N4CCC(C)(CNC(=O)OC(C)(C)C)CC4)nc3N)cccc21` [Example 13, tert-butyl ((1-(5-((1-acetyl-3,3-difluoroindolin-4-yl)thio)-6-aminopyrazin-2-yl)-4-methylpiperidin-4-yl)methyl)carbamate], for which the pIC50 in experiment [1] was 4.69.
`Nc1nc(N2CCC3(CC2)C(=O)N2CCCC2C3N)cnc1Sc1ccnc(N)c1Cl` (centres unmarked) [Example 75, 1′-amino-1-(6-amino-5-((2-amino-3-chloropyridin-4-yl)thio)pyrazin-2-yl)tetrahydrospiro[piperidine-4,2′-pyrrolizin]-3′(1′H)-one] registered an inhibition at 0.1 µM in experiment [2] of 35%.
Same read-out and setting: in the case of `CN(C)C(=O)C(=O)Nc1cccc(Sc2ncc(N3CCC(C)(CN)CC3)nc2N)c1Cl` [Example 20, N^1-(3-((3-amino-5-(4-(aminomethyl)-4-methylpiperidin-1-yl)pyrazin-2-yl)thio)-2-chlorophenyl)-N^2,N^2-dimethyloxalamide] it was 57%; in that of `Nc1nc(N2CCC3(CC2)COC[C@H]3N)cnc1Sc1cccc2[nH]ccc12` [Example 42, (S)-8-(5-((1H-indol-4-yl)thio)-6-aminopyrazin-2-yl)-2-oxa-8-azaspiro[4.5]decan-4-amine], 58%.
On to `Nc1nc(N2CCC3(CC2)COC[C@H]3N)cnc1Sc1ccnc2c1C(F)(F)C(=O)N2` [Example 10, (S)-4-((3-amino-5-(4-amino-2-oxa-8-azaspiro[4.5]decan-8-yl)pyrazin-2-yl)thio)-3,3-difluoro-1H-pyrrolo[2,3-b]pyridin-2(3H)-one], for which the inhibition at 0.1 µM in experiment [2] was found to be 81%. In experiment [3], this molecule showed a pIC50 of 7.52.
As for `CN(C)C(=O)C(=O)c1ccc(C(=O)Nc2nccc(Sc3ncc(N4CCC(C)(CN)CC4)nc3N)c2Cl)cc1` [Example 35, N-(4-((3-amino-5-(4-(aminomethyl)-4-methylpiperidin-1-yl)pyrazin-2-yl)thio)-3-chloropyridin-2-yl)-4-(2-(dimethylamino)-2-oxoacetyl)benzamide], the inhibition at 0.1 µM in experiment [2] turned out to be 30%.
Still for that read-out and setting: in the case of `CN(C)C(=O)C(=O)Nc1cccc(Sc2ncc(N3CCC(C)(N)CC3)nc2N)c1Cl` [Example 29, N^1-(3-((3-amino-5-(4-amino-4-methylpiperidin-1-yl)pyrazin-2-yl)thio)-2-chlorophenyl)-N^2,N^2-dimethyloxalamide] it was 47%; in that of `CN1C(=O)C(F)(C(F)(F)F)c2c(Sc3ncc(N4CCC5(CC4)COC[C@H]5N)nc3N)cccc21` (stereo partly drawn) [Example 58, 4-((3-amino-5-((S)-4-amino-2-oxa-8-azaspiro[4.5]decan-8-yl)pyrazin-2-yl)thio)-3-fluoro-1-methyl-3-(trifluoromethyl)indolin-2-one], 61%.
In turn, `CN1C(=O)C(F)(F)c2c(Sc3ncc(N4CCC5(CC4)COC[C@H]5N[S@+]([O-])C(C)(C)C)nc3N)cccc21` [Example 11, (R)-N-((S)-8-(6-amino-5-((3,3-difluoro-1-methyl-2-oxoindolin-4-yl)thio)pyrazin-2-yl)-2-oxa-8-azaspiro[4.5]decan-4-yl)-2-methylpropane-2-sulfinamide] showed a pIC50 in experiment [1] of 4.92.
Molecule `Nc1nc(N2CCC3(CC2)COC[C@H]3N)cnc1Sc1cccc2[nH]cc(F)c12` [Example 40, (S)-8-(6-amino-5-((3-fluoro-1H-indol-4-yl)thio)pyrazin-2-yl)-2-oxa-8-azaspiro[4.5]decan-4-amine] came in with an inhibition at 0.1 µM in experiment [2] of 71%. The pIC50 in experiment [3] is 7.39.
Take `CC(=O)n1ccc2c(Sc3ncc(N4CCC5(CC4)COC[C@H]5N)nc3N)cccc21` [Example 43, (S)-1-(4-((3-amino-5-(4-amino-2-oxa-8-azaspiro[4.5]decan-8-yl)pyrazin-2-yl)thio)-1H-indol-1-yl)ethanone]: the inhibition at 0.1 µM in experiment [2] came out at 43%.
On to `Nc1nc(N2CCC3(CC2)COC[C@H]3N)cnc1Sc1ccnc2[nH]ccc12` [Example 38, (S)-8-(5-((1H-pyrrolo[2,3-b]pyridin-4-yl)thio)-6-aminopyrazin-2-yl)-2-oxa-8-azaspiro[4.5]decan-4-amine], for which the inhibition at 0.1 µM in experiment [2] was 30%.
With `Nc1nc(N2CCC3(CC2)CC2CC2C3N)cnc1Sc1ccnc(N)c1Cl` (centres unmarked) [Example 74, 1′-(6-amino-5-((2-amino-3-chloropyridin-4-yl)thio)pyrazin-2-yl)spiro[bicyclo[3.1.0]hexane-3,4′-piperidin]-2-amine], the pIC50 was 5.47 in experiment [1] and 8.08 in experiment [3]. In experiment [2], this molecule returned an inhibition at 0.1 µM of 75%.
For `Nc1nc(N2CCC3(CC2)COC[C@H]3N)cnc1Sc1cccc2c1C(F)(F)C(=O)N2` [Example 8, (S)-4-((3-amino-5-(4-amino-2-oxa-8-azaspiro[4.5]decan-8-yl)pyrazin-2-yl)thio)-3,3-difluoroindolin-2-one], in that order: 4.58, 7.67 and 76%.
The molecule `CN(C)C(=O)C(=O)c1ccc(C(=O)Nc2nccc(Sc3ncc(N4CCC(C)(N)CC4)nc3N)c2Cl)cc1` [Example 34, N-(4-((3-amino-5-(4-amino-4-methylpiperidin-1-yl)pyrazin-2-yl)thio)-3-chloropyridin-2-yl)-4-(2-(dimethylamino)-2-oxoacetyl)benzamide] yielded an inhibition at 0.1 µM in experiment [2] of 37%.
The same measure, in the same setting: in the case of `Cc1ccc(C(=O)C(=O)Nc2cccc(Sc3ncc(N4CCC(C)(N)CC4)nc3N)c2Cl)cc1` [Example 31, N-(3-((3-amino-5-(4-amino-4-methylpiperidin-1-yl)pyrazin-2-yl)thio)-2-chlorophenyl)-2-oxo-2-(p-tolyl)acetamide] it was 53%; in that of `C=CC(=O)Nc1cccc(Sc2ncc(N3CCC(C)(NC(=O)OC(C)(C)C)CC3)nc2N)c1Cl` [Example 32, tert-butyl (1-(5-((3-acrylamido-2-chlorophenyl)thio)-6-aminopyrazin-2-yl)-4-methylpiperidin-4-yl)carbamate], 49%.
Still for that read-out and setting: in the case of `CN(C)C(=O)C(=O)c1ccc(C(=O)Nc2cccc(Sc3ncc(N4CCC(C)(N)CC4)nc3N)c2Cl)cc1` [Example 3, N-(3-((3-amino-5-(4-amino-4-methylpiperidin-1-yl)pyrazin-2-yl)thio)-2-chlorophenyl)-4-(2-(dimethylamino)-2-oxoacetyl)benzamide] it was 60%.
